CN1CC(=O)N2[C@H](c3ccc4c(c3)OCO4)c3[nH]c4ccccc4c3C[C@@H]2C1=O
solubility (mole fraction)
Settings	298.15 K	303.15 K	308.15 K	313.15 K	318.15 K	323.15 K	328.15 K	333.15 K
in transcutol	0.00876	0.00973	0.0107	0.0119	0.0133	0.0149	0.0166	0.0182
in water	5.74e-07	7.59e-07	1.02e-06	1.34e-06	1.75e-06	2.26e-06	2.77e-06	3.45e-06
